# Assay results published in US11548893B2 (priority 2017, dated 2023).
# Where two headings read alike, the source gives them in different places.
# What was measured:
# in vitro [1] = conditions: human, Caco-2
# in vitro [2] = conditions: human
# [3] = system: VSV (native full-length glycoprotein); assay: microbe, parasite or virus in culture; format: cell-based; conditions: Vesicular stomatitis virus, Vero, read-out: EC50 Pseudotype Assays VSV
# Cyp-p450 1A2 = Cyp-p450 1A2 (Homo sapiens, UniProt P05177)
# physchem = conditions: pH 7, kinetic from dmso stock
# [4] = mouse, in vivo
# Cyp-p450 2C19 = Cyp-p450 2C19 (Homo sapiens, UniProt P33261)
# [5] = system: SUDV (glycoprotein, VSV pseudotype); assay: microbe, parasite or virus in culture; format: cell-based, Sudan ebolavirus; conditions: read-out: EC50 Pseudotype Assays SUDV
# [6] = system: MARV (full-length glycoprotein, VSV pseudotype); assay: microbe, parasite or virus in culture; format: cell-based, Marburg marburgvirus; conditions: read-out: EC50 Pseudotype Assays MARV
# Cyp-p450 2C9 = Cyp-p450 2C9 (Homo sapiens, UniProt P11712)
# [7] = pH 7
# Cyp-p450 2D6 = Cyp-p450 2D6 (Homo sapiens, UniProt P10635)
# [8] = system: BDBV (mucin-deleted glycoprotein, VSV pseudotype); assay: microbe, parasite or virus in culture; format: cell-based, Bundibugyo ebolavirus; conditions: read-out: EC50 Pseudotype Assays BDBV
# in vitro [9] = conditions: African green monkey
# hERG ion channel = hERG ion channel (Homo sapiens, UniProt Q12809); assay: biochemical
# Cyp-p450 2B6 = Cyp-p450 2B6 (Homo sapiens, UniProt P20813)
# EBOV (Mayinga) = assay: microbe, parasite or virus in culture; format: cell-based, Ebola virus; conditions: for EC50: Zaire ebolavirus, Vero
# in vivo = conditions: male, CD-1, mouse
# in vitro [10] = conditions: African green monkey, Cytotox CC50
# Cyp-p450 3A4 = Cyp-p450 3A4 (Homo sapiens, UniProt P08684)
# [11] = system: EBOV_FL: full-length Ebola Zaire GP (VSV pseudotype); assay: microbe, parasite or virus in culture; format: cell-based, Zaire ebolavirus; conditions: read-out: EC50 Pseudotype Assays EBOV_FL
# in vitro [12] = conditions: mouse
# P-gp = P-gp (Homo sapiens, UniProt P08183)
# [13] = system: EBOV (mucin-deleted glycoprotein, VSV pseudotype); assay: microbe, parasite or virus in culture; format: cell-based, Zaire ebolavirus; conditions: read-out: EC50 Pseudotype Assays EBOV
# Vero cells = conditions: African green monkey
# Ebola Zaire [14] = system: Ebola Zaire
# [15] = microsomes, 1 h
# [16] = microsomes, 1 h; remark: listed apart in the source
# Ebola Zaire [17] = assay: microbe, parasite or virus in culture; conditions: Zaire ebolavirus, HeLa, read-out: Ebola Zaire EC50
# Sudan Gulu [18] = system: Sudan Gulu
# Sudan Gulu [19] = assay: organism not typed; conditions: HeLa, read-out: Sudan Gulu EC50
# [20] = microsomes, 1 h; remark: listed apart in the source
# [21] = microsomes, 1 h; remark: listed apart in the source
# Ebola Zaire [22] = system: Ebola Zaire; remark: listed apart in the source
# Ebola Zaire [23] = assay: microbe, parasite or virus in culture; conditions: Zaire ebolavirus, read-out: Ebola Zaire EC50
# Ebola Zaire [24] = assay: microbe, parasite or virus in culture; conditions: Zaire ebolavirus, read-out: Ebola Zaire EC90
# [25] = in vivo, po, 150 mg/kg; cited from earlier work
# Ebola virus infection = conditions: human, in vivo; cited from earlier work
# native EBOV virus = conditions: read-out: published EC50 against native EBOV virus; cited from earlier work
# [26] = human, in vivo; cited from earlier work
# [27] = Vesicular stomatitis virus, Vero, 24 h
# Sequence of Cyp-p450 3A4 (P08684 whole entry): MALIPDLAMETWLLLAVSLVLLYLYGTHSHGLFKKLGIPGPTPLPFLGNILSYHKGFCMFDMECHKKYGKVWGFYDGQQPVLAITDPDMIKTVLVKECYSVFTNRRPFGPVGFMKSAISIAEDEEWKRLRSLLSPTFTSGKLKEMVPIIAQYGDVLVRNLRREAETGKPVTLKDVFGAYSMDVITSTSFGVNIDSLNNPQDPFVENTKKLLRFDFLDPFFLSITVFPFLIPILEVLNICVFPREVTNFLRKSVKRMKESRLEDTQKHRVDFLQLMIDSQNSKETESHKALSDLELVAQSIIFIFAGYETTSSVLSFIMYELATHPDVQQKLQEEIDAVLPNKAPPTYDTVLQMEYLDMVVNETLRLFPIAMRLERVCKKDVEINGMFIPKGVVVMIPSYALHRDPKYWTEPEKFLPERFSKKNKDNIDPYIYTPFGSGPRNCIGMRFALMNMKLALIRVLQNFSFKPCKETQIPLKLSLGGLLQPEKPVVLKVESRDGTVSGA
# Sequence of P-gp (P08183 whole entry): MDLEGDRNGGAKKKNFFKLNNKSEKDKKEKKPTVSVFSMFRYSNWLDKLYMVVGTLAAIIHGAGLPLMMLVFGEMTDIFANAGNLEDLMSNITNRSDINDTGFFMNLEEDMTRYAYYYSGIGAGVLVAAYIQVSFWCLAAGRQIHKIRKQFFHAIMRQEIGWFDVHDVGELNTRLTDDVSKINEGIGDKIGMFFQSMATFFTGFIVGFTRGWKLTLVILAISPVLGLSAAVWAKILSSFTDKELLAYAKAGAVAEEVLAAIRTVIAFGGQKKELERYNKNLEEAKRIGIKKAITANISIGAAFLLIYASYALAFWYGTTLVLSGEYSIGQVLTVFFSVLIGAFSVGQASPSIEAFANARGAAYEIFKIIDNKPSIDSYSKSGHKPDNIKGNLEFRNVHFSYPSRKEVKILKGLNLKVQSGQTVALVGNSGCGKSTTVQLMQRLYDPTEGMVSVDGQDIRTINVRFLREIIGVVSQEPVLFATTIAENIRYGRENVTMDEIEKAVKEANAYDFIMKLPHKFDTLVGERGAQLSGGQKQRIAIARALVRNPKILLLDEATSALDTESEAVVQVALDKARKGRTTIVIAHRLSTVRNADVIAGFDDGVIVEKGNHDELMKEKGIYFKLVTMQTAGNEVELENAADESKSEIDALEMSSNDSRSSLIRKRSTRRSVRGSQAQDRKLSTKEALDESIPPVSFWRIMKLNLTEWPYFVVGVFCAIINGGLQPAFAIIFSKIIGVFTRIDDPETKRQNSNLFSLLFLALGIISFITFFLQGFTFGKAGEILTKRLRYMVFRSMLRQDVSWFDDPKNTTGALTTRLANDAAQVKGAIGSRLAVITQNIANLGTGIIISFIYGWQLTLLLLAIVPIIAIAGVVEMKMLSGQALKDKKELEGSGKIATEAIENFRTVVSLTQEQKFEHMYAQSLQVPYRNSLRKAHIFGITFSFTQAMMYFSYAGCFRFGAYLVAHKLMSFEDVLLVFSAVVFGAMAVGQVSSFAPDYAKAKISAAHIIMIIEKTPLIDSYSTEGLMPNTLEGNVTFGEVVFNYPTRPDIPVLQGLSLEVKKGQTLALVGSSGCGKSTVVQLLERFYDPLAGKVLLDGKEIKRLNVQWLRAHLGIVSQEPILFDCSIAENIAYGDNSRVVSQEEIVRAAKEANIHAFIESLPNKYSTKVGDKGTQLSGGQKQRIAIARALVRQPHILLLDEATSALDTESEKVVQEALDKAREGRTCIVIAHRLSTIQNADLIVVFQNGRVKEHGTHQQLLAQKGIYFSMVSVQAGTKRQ
# Sequence of Cyp-p450 2D6 (P10635 whole entry): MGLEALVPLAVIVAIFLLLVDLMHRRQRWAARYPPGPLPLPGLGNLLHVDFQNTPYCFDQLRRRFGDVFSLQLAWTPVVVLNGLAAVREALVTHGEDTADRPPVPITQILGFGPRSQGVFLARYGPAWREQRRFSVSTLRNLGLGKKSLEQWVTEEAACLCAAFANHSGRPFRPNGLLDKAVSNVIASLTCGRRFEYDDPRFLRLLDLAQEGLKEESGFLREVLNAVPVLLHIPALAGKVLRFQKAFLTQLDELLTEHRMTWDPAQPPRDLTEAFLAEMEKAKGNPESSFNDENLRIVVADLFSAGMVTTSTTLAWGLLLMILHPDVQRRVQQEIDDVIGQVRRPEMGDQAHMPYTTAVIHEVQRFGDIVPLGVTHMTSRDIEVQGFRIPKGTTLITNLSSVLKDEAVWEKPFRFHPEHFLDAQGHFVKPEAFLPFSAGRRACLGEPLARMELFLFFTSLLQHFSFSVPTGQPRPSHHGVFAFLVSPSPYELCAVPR
# Sequence of Cyp-p450 2C9 (P11712 whole entry): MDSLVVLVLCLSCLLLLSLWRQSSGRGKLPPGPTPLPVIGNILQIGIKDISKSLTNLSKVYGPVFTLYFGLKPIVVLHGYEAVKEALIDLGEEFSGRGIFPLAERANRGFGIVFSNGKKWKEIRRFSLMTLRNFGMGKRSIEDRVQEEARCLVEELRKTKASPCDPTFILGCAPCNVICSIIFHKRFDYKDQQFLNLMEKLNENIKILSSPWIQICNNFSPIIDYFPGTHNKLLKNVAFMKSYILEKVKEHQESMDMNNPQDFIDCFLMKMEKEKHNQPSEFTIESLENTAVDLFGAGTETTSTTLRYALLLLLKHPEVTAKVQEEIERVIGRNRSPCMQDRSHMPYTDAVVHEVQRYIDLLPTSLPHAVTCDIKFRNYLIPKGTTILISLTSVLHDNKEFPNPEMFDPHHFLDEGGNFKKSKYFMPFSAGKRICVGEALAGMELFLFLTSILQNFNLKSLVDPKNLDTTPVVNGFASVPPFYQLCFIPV
# Sequence of Cyp-p450 1A2 (P05177 whole entry): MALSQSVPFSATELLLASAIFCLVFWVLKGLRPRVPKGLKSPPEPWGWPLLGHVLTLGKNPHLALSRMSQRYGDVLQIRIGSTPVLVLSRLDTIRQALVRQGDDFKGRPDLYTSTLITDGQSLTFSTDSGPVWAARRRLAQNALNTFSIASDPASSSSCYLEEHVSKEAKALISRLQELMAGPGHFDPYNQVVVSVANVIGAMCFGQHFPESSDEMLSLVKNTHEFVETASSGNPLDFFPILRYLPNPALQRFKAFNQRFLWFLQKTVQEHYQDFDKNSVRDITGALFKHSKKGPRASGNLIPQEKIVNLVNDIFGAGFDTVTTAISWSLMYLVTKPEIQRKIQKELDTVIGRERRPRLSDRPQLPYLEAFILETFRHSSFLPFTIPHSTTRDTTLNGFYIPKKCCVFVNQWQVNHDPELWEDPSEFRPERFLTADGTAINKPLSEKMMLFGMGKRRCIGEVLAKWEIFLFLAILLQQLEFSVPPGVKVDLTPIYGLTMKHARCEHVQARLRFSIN
# Sequence of hERG ion channel (Q12809 whole entry): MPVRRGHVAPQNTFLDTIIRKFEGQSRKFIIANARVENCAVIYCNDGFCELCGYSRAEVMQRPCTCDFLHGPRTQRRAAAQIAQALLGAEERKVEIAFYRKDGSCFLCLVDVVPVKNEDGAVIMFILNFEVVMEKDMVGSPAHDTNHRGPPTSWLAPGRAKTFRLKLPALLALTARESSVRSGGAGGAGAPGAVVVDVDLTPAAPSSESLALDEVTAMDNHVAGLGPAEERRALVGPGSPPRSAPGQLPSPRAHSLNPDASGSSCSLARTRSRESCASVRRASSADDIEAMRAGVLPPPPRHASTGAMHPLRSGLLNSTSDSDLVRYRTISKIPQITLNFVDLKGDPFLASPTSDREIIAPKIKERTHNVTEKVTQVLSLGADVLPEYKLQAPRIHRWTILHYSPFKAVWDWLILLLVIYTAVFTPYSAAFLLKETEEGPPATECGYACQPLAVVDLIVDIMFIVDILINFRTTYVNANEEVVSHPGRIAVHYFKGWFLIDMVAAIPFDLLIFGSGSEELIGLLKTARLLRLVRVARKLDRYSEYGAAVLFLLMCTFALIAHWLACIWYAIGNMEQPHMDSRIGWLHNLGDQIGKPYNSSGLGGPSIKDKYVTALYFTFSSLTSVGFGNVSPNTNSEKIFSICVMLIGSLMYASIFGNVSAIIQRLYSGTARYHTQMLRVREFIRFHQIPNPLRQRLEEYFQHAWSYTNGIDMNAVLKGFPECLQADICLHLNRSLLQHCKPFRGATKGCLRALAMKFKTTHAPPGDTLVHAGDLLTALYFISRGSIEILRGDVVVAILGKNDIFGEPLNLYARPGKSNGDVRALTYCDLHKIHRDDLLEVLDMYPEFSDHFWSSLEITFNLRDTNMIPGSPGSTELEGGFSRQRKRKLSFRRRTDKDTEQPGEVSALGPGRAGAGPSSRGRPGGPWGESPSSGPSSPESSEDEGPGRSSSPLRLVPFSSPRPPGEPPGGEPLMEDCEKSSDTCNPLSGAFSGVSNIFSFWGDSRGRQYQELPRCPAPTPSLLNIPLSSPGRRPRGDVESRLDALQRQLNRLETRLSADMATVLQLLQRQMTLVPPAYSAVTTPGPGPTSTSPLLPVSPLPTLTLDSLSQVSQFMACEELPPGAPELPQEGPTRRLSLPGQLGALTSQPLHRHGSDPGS
# Sequence of Cyp-p450 2C19 (P33261 whole entry): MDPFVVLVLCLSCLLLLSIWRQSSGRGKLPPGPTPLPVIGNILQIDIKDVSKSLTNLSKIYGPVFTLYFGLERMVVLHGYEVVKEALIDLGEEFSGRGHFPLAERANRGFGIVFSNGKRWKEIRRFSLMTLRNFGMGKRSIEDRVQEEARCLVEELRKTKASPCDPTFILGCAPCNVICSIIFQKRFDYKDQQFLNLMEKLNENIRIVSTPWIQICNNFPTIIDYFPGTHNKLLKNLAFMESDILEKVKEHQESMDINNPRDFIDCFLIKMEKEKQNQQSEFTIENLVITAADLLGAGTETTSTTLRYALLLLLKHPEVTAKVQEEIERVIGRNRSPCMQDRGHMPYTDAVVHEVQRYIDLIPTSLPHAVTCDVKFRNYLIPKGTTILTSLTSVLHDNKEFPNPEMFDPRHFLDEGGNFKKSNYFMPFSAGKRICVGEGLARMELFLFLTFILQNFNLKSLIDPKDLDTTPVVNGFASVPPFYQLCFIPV
compound,measurement,setting,value
CC12CC3CC(C(=O)N[C@H]4CC[C@@H](N)CC4)(C1)CC(c1ccccc1)(C3)C2.Cl (mixture of isomers) [Example A2],Papp A→B,in vitro [1],3.61 ×10⁻⁶ cm/s
same,Papp B→A,in vitro [1],15.6 ×10⁻⁶ cm/s
same,efflux ratio,in vitro [1],4.32
same,fraction unbound,in vitro [2],0.025
same,EC50,[3],> 10 µM
same,IC50,Cyp-p450 1A2,> 100 µM
same,solubility,physchem,> 500 µM
same,clearance,[4],less than hepatic blood flow
same,IC50,Cyp-p450 2C19,> 100 µM
same,EC50,[5]; [27],0.27 µM
same,EC50,[6]; [27],3.1 µM
same,IC50,Cyp-p450 2C9,> 100 µM
same,Turbidimetric solubility,[7],>500 µM
same,IC50,Cyp-p450 2D6,> 100 µM
same,EC50,[8]; [27],0.09 µM
same,CC50,in vitro [9],66 µM
same,IC50,hERG ion channel,> 10 µM
same,IC50,Cyp-p450 2B6,> 100 µM
same,SI50 (CC50/EC50),EBOV (Mayinga),153
same,EC50,EBOV (Mayinga),0.43 µM
same,Vd,in vivo,14 L/kg
same,bioavailability,in vivo,72%
same,half-life,in vivo; 10 mg/kg,7 h
same,AUC(0-inf),"in vivo; iv, 1 mg/kg",561 ng·h/mL
same,AUC(0-t),"in vivo; iv, 1 mg/kg",539 ± 23 ng·h/mL
same,Cmax,"in vivo; iv, 1 mg/kg",129 ± 40 ng/mL
same,Tmax,"in vivo; iv, 1 mg/kg",0.083 h
same,Vd,"in vivo; iv, 1 mg/kg",13.9 L/kg
same,clearance,"in vivo; iv, 1 mg/kg",29.7 mL/min/kg
same,half-life,"in vivo; iv, 1 mg/kg",5.4 h
same,AUC(0-inf),"in vivo; po, 10 mg/kg",4040 ng·h/mL
same,AUC(0-t),"in vivo; po, 10 mg/kg",3590 ± 576 ng·h/mL
same,Cmax,"in vivo; po, 10 mg/kg",239 ± 46 ng/mL
same,Tmax,"in vivo; po, 10 mg/kg",6 h
same,half-life,"in vivo; po, 10 mg/kg",7.1 h
same,CC50,in vitro [10],10.1 µM
same,IC50,Cyp-p450 3A4; CYP Inhibition 3A4 (Midazolam),> 100 µM
same,IC50,Cyp-p450 3A4; CYP Inhibition 3A4 (Testosterone),28 µM
same,EC50,"[11]; Zaire ebolavirus, Vero, 24 h",0.024 µM
same,fraction unbound,in vitro [12],0.014
same,P-gp substrate ID Caco-2 Permeability (+Verapamil) Paap Mean A > B,P-gp,8.47 10^−6 cm s^−1
same,P-gp substrate ID Caco-2 Permeability (+Verapamil) Paap Mean B > A,P-gp,7.45 10^−6 cm s^−1
same,EC50,"[13]; Zaire ebolavirus, Vero, 24 h",0.02 µM
CCC12CC3CC(C(=O)N[C@@H]4CCNC[C@H]4F)(C1)CC(c1ccccc1)(C3)C2 (mixture of isomers) [Example A18],EC50,[5],0.303 µM
same,EC50,[6],3.5 µM
same,EC50,[8],0.203 µM
same,EC50,[11],0.03 µM
same,EC50,[13],0.2 µM
same,CC50,Vero cells,9.8 µM
CC12CC3CC(C(=O)N4CCC(N)C(C)(C)C4)(C1)CC(c1ccccc1)(C3)C2 (racemic) [Example A35],Ebola Zaire SI (CC50/EC50),Ebola Zaire [14],29
same,"Liver Microsome Stability % Remaining after 60 Minutes, Human",[15],97%
same,"Liver Microsome Stability % Remaining after 60 Minutes, Guinea Pig",[16],45%
same,EC50,Ebola Zaire [17],1.14 µM
same,EC50,[5]; [27],0.08 µM
same,Sudan Gulu SI (CC50/EC50),Sudan Gulu [18],136
same,EC50,Sudan Gulu [19],0.14 µM
same,EC50,[8]; [27],0.071 µM
same,"Liver Microsome Stability % Remaining after 60 Minutes, Mouse",[20],42%
same,CC50,in vitro [10],10.2 µM
same,"Liver Microsome Stability % Remaining after 60 Minutes, Monkey",[21],22%
same,EC50,"[11]; Zaire ebolavirus, Vero, 24 h",0.02 µM
same,EC50,"[13]; Zaire ebolavirus, Vero, 24 h",0.01 µM
CCC12CC3CC(C(=O)NC4CCNCC4(C)C)(C1)CC(c1ccccc1)(C3)C2 (racemic) [Example A52],EC50,[5],0.4 µM
same,EC50,[6],1.2 µM
same,EC50,[8],0.168 µM
same,EC50,[11],0.03 µM
same,EC50,[13],0.038 µM
same,CC50,Vero cells,5.7 µM
CC12CC3CC(CN4CCC(N)CC4)(C1)CC(c1ccccc1)(C3)C2 (stereo not shown) [Example A69],Ebola Zaire SI (CC50/EC50),Ebola Zaire [14],16
same,"Liver Microsome Stability % Remaining after 60 Minutes, Human",[15],98%
same,"Liver Microsome Stability % Remaining after 60 Minutes, Guinea Pig",[16],65%
same,EC50,Ebola Zaire [17],0.44 µM
same,EC50,[5]; [27],0.29 µM
same,EC50,[6]; [27],0.95 µM
same,Sudan Gulu SI (CC50/EC50),Sudan Gulu [18],58
same,EC50,Sudan Gulu [19],0.07 µM
same,EC50,[8]; [27],0.163 µM
same,"Liver Microsome Stability % Remaining after 60 Minutes, Mouse",[20],100%
same,CC50,in vitro [10],2.2 µM
same,"Liver Microsome Stability % Remaining after 60 Minutes, Monkey",[21],68%
same,EC50,"[13]; Zaire ebolavirus, Vero, 24 h",0.321 µM
C[C@@]12CC3CC(C(=O)NC4CCNCC4)(CC(c4ccccc4)(C3)C1)C2 [Example B1],Ebola Zaire SI (CC50/EC50),Ebola Zaire [14],51
same,"Liver Microsome Stability % Remaining after 60 Minutes, Human",[15],81%
same,Ebola Zaire SI (CC50/EC90),Ebola Zaire [22],>48
same,EC50,Ebola Zaire [23],> 3.2 µM
same,EC90,Ebola Zaire [24],2.1 µM
same,EC50,Ebola Zaire [17],0.64 µM
same,EC50,[5]; [27],0.25 µM
same,EC50,[6]; [27],> 3 µM
same,Sudan Gulu SI (CC50/EC50),Sudan Gulu [18],285
same,EC50,Sudan Gulu [19],0.12 µM
same,EC50,[8]; [27],0.238 µM
same,"Liver Microsome Stability % Remaining after 60 Minutes, Mouse",[20],87%
same,CC50,in vitro [10],12.3 µM
same,"Liver Microsome Stability % Remaining after 60 Minutes, Monkey",[21],83%
same,EC50,"[11]; Zaire ebolavirus, Vero, 24 h",0.01 µM
same,EC50,"[13]; Zaire ebolavirus, Vero, 24 h",0.034 µM
C[C@]12CC3CC(C(=O)N[C@H]4CC[C@H](CN)CC4)(C1)C[C@@](c1ccccc1)(C3)C2 [Example B3],"Liver Microsome Stability % Remaining after 60 Minutes, Human",[15],83%
same,Ebola Zaire SI (CC50/EC90),Ebola Zaire [22],23
same,EC50,Ebola Zaire [23],0.43 µM
same,EC90,Ebola Zaire [24],0.6 µM
same,EC50,Ebola Zaire [17],0.57 µM
same,EC50,[5]; [27],0.23 µM
same,EC50,[6]; [27],3.6 µM
same,Sudan Gulu SI (CC50/EC50),Sudan Gulu [18],119
same,EC50,Sudan Gulu [19],0.12 µM
same,EC50,[8]; [27],0.114 µM
same,"Liver Microsome Stability % Remaining after 60 Minutes, Mouse",[20],27%
same,CC50,in vitro [10],6.11 µM
same,"Liver Microsome Stability % Remaining after 60 Minutes, Monkey",[21],61%
same,EC50,"[11]; Zaire ebolavirus, Vero, 24 h",0.01 µM
same,EC50,"[13]; Zaire ebolavirus, Vero, 24 h",0.009 µM
C[C@H]1C[C@@H](NC(=O)C23CC4C[C@@](C)(C2)C[C@](c2ccccc2)(C4)C3)CCN1 [Example B4],Ebola Zaire SI (CC50/EC50),Ebola Zaire [14],54
same,"Liver Microsome Stability % Remaining after 60 Minutes, Human",[15],82%
same,Ebola Zaire SI (CC50/EC90),Ebola Zaire [22],>35
same,EC90,Ebola Zaire [24],2.9 µM
same,EC50,Ebola Zaire [17],0.62 µM
same,EC50,[5],0.166 µM
same,EC50,[6]; [27],> 3 µM
same,Sudan Gulu SI (CC50/EC50),Sudan Gulu [18],155
same,EC50,Sudan Gulu [19],0.15 µM
same,EC50,[8],0.104 µM
same,"Liver Microsome Stability % Remaining after 60 Minutes, Mouse",[20],92%
same,CC50,in vitro [10],22.5 µM
same,"Liver Microsome Stability % Remaining after 60 Minutes, Monkey",[21],54%
same,EC50,[13],0.013 µM
C[C@H]1C[C@@H](NC(=O)C23CC4C[C@@](C)(C2)C[C@](c2ccccc2)(C4)C3)CCN1 [Example B15],EC50,[5],0.61 µM
same,EC50,[8],0.21 µM
same,EC50,[13],0.035 µM
same,CC50,Vero cells,14.8 µM
C[C@]12CC3CC(C(=O)N[C@H]4CN5CCC4CC5)(C1)C[C@@](c1ccccc1)(C3)C2 [Example B58],Ebola Zaire SI (CC50/EC90),Ebola Zaire [22],6.5
same,EC50,Ebola Zaire [23],0.4 µM
same,EC90,Ebola Zaire [24],4.4 µM
same,EC50,Ebola Zaire [17],0.9 µM
same,EC50,[5]; [27],0.22 µM
same,EC50,[6]; [27],1.68 µM
same,Sudan Gulu SI (CC50/EC50),Sudan Gulu [18],157
same,EC50,Sudan Gulu [19],0.15 µM
same,EC50,[8]; [27],0.23 µM
same,CC50,in vitro [9],25.7 µM
same,SI50 (CC50/EC50),EBOV (Mayinga),64
same,EC50,EBOV (Mayinga),0.4 µM
same,CC50,in vitro [10],8 µM
same,EC50,"[13]; Zaire ebolavirus, Vero, 24 h",0.036 µM
C[C@@]12CC3CC(C(=O)N[C@H]4CC[C@@H](N)CC4)(C1)C[C@](c1ccccc1)(C3)C2 [Example C2],EC50,[5]; [27],0.767 µM
same,EC50,[6]; [27],8.72 µM
same,EC50,[8]; [27],0.252 µM
same,CC50,in vitro [9],21.4 µM
same,SI50 (CC50/EC50),EBOV (Mayinga),8
same,EC50,EBOV (Mayinga),2.67 µM
same,CC50,in vitro [10],25.5 µM
same,EC50,"[11]; Zaire ebolavirus, Vero, 24 h",0.209 µM
same,EC50,"[13]; Zaire ebolavirus, Vero, 24 h",0.135 µM
"NC(=O)c1nc(F)c[nH]c1=O [favipiravir, reference compound]",half-life,[25],1.8 h
same,CC50,in vitro [9],> 1000 µM
same,SI50 (CC50/EC50),EBOV (Mayinga),>59
same,EC50,EBOV (Mayinga),17 µM
same,drop in viral load,Ebola virus infection,3-4 log
same,EC50,native EBOV virus,67 µM
same,half-life in humans,[26],1 to 4 h
